# Results as given in publication PMC9481151, “Discovery of new symmetrical and asymmetrical nitrile-containing 1,4-dihydropyridine derivatives as dual kinases and P-glycoprotein inhibitors: synthesis, in vitro assays, and in silico studies” (Journal of Enzyme Inhibition and Medicinal Chemistry, 2022).
# What was measured:
# TK-10 = assay: NCI single dose (10 µM) SRB screen; type: cell-based, human; conditions: renal cancer, 48 h
# KM12 = assay: NCI single dose (10 µM) SRB screen; type: cell-based, human; conditions: colon cancer, 48 h
# ACHN = assay: NCI single dose (10 µM) SRB screen; type: cell-based, human; conditions: renal cancer, 48 h
# OVCAR-8 = assay: NCI single dose (10 µM) SRB screen; type: cell-based, human; conditions: ovarian cancer, 48 h
# SK-OV-3 = assay: NCI single dose (10 µM) SRB screen; type: cell-based, human; conditions: ovarian cancer, 48 h
# Candida albicans = assay: Agar well diffusion method; conditions: relative to clotrimazole
# NCI-H23 = assay: NCI single dose (10 µM) SRB screen; type: cell-based, human; conditions: non-small cell lung cancer, 48 h
# PC-3 = assay: NCI single dose (10 µM) SRB screen; type: cell-based, human; conditions: prostate cancer, 48 h
# MALME-3M = assay: NCI single dose (10 µM) SRB screen; type: cell-based, human; conditions: melanoma, 48 h
# HCT-15 = assay: NCI single dose (10 µM) SRB screen; type: cell-based, human; conditions: colon cancer, 48 h
# Bacillus subtilis = assay: Agar well diffusion method; conditions: relative to ciprofloxacin
# NCI-H226 = assay: NCI single dose (10 µM) SRB screen; type: cell-based, human; conditions: non-small cell lung cancer, 48 h
# SR = assay: NCI single dose (10 µM) SRB screen; type: cell-based, human; conditions: leukaemia, 48 h
# OVCAR-4 = assay: NCI single dose (10 µM) SRB screen; type: cell-based, human; conditions: ovarian cancer, 48 h
# HOP-62 = assay: NCI single dose (10 µM) SRB screen; type: cell-based, human; conditions: non-small cell lung cancer, 48 h
# NCI-H460 = assay: NCI single dose (10 µM) SRB screen; type: cell-based, human; conditions: non-small cell lung cancer, 48 h
# SNB-19 = assay: NCI single dose (10 µM) SRB screen; type: cell-based, human; conditions: CNS cancer, 48 h
# MDA-MB-468 = assay: NCI single dose (10 µM) SRB screen; type: cell-based, human; conditions: breast cancer, 48 h
# HOP-92 = assay: NCI single dose (10 µM) SRB screen; type: cell-based, human; conditions: non-small cell lung cancer, 48 h
# UO-31 = assay: NCI single dose (10 µM) SRB screen; type: cell-based, human; conditions: renal cancer, 48 h
# HT29 = assay: NCI single dose (10 µM) SRB screen; type: cell-based, human; conditions: colon cancer, 48 h
# T-47D = assay: NCI single dose (10 µM) SRB screen; type: cell-based, human; conditions: breast cancer, 48 h
# MCF7 = assay: NCI single dose (10 µM) SRB screen; type: cell-based, human; conditions: breast cancer, 48 h
# A549/ATCC = assay: NCI single dose (10 µM) SRB screen; type: cell-based, human; conditions: non-small cell lung cancer, 48 h
# NCI 60 cancer cell lines = assay: NCI single dose (10 µM) SRB screen, mean over panel; type: cell-based, human; conditions: mean over 60 cell lines, 48 h
# NCI-H522 = assay: NCI single dose (10 µM) SRB screen; type: cell-based, human; conditions: non-small cell lung cancer, 48 h
# SNB-75 = assay: NCI single dose (10 µM) SRB screen; type: cell-based, human; conditions: CNS cancer, 48 h
# MOLT-4 = assay: NCI single dose (10 µM) SRB screen; type: cell-based, human; conditions: leukaemia, 48 h
# K-562 = assay: NCI single dose (10 µM) SRB screen; type: cell-based, human; conditions: leukaemia, 48 h
# SN12C = assay: NCI single dose (10 µM) SRB screen; type: cell-based, human; conditions: renal cancer, 48 h
# RXF 393 = assay: NCI single dose (10 µM) SRB screen; type: cell-based, human; conditions: renal cancer, 48 h
# M14 = assay: NCI single dose (10 µM) SRB screen; type: cell-based, human; conditions: melanoma, 48 h
# SW-620 = assay: NCI single dose (10 µM) SRB screen; type: cell-based, human; conditions: colon cancer, 48 h
# SK-MEL-28 = assay: NCI single dose (10 µM) SRB screen; type: cell-based, human; conditions: melanoma, 48 h
# MDA-MB-231 = assay: NCI single dose (10 µM) SRB screen; type: cell-based, human; conditions: breast cancer, 48 h
# UACC-62 = assay: NCI single dose (10 µM) SRB screen; type: cell-based, human; conditions: melanoma, 48 h
# 786-0 = assay: NCI single dose (10 µM) SRB screen; type: cell-based, human; conditions: renal cancer, 48 h
# UACC-257 = assay: NCI single dose (10 µM) SRB screen; type: cell-based, human; conditions: melanoma, 48 h
# HCT-116 = assay: NCI single dose (10 µM) SRB screen; type: cell-based, human; conditions: colon cancer, 48 h
# SK-MEL-2 = assay: NCI single dose (10 µM) SRB screen; type: cell-based, human; conditions: melanoma, 48 h
# RPMI-8226 = assay: NCI single dose (10 µM) SRB screen; type: cell-based, human; conditions: leukaemia, 48 h
# SF-539 = assay: NCI single dose (10 µM) SRB screen; type: cell-based, human; conditions: CNS cancer, 48 h
# LOX IMVI = assay: NCI single dose (10 µM) SRB screen; type: cell-based, human; conditions: melanoma, 48 h
# EKVX = assay: NCI single dose (10 µM) SRB screen; type: cell-based, human; conditions: non-small cell lung cancer, 48 h
# SF-268 = assay: NCI single dose (10 µM) SRB screen; type: cell-based, human; conditions: CNS cancer, 48 h
# OVCAR-5 = assay: NCI single dose (10 µM) SRB screen; type: cell-based, human; conditions: ovarian cancer, 48 h
# DU-145 = assay: NCI single dose (10 µM) SRB screen; type: cell-based, human; conditions: prostate cancer, 48 h
# U251 = assay: NCI single dose (10 µM) SRB screen; type: cell-based, human; conditions: CNS cancer, 48 h
# Escherichia coli = assay: Agar well diffusion method; conditions: relative to ciprofloxacin
# NCI-H322M = assay: NCI single dose (10 µM) SRB screen; type: cell-based; conditions: non-small cell lung cancer, 48 h
# CAKI-1 = assay: NCI single dose (10 µM) SRB screen; type: cell-based, human; conditions: renal cancer, 48 h
# HS578T = assay: NCI single dose (10 µM) SRB screen; type: cell-based, human; conditions: breast cancer, 48 h
# HL-60(TB) = assay: NCI single dose (10 µM) SRB screen; type: cell-based, human; conditions: leukaemia, 48 h
# CCRF-CEM = assay: NCI single dose (10 µM) SRB screen; type: cell-based, human; conditions: leukaemia, 48 h
# OVCAR-3 = assay: NCI single dose (10 µM) SRB screen; type: cell-based, human; conditions: ovarian cancer, 48 h
# Staphylococcus aureus = assay: Agar well diffusion method; conditions: relative to ciprofloxacin
# NCI/ADR-RES = assay: NCI single dose (10 µM) SRB screen; type: cell-based, human; conditions: ovarian cancer, 48 h
# MDA-MB-435 = assay: NCI single dose (10 µM) SRB screen; type: cell-based, human; conditions: melanoma, 48 h
# A498 = assay: NCI single dose (10 µM) SRB screen; type: cell-based, human; conditions: renal cancer, 48 h
# Pseudomonas aeruginosa = assay: Agar well diffusion method; conditions: relative to ciprofloxacin
# IGROV1 = assay: NCI single dose (10 µM) SRB screen; type: cell-based, human; conditions: ovarian cancer, 48 h
# SF-295 = assay: NCI single dose (10 µM) SRB screen; type: cell-based, human; conditions: CNS cancer, 48 h
# COLO 205 = assay: NCI single dose (10 µM) SRB screen; type: cell-based, human; conditions: colon cancer, 48 h
# SK-MEL-5 = assay: NCI single dose (10 µM) SRB screen; type: cell-based, human; conditions: melanoma, 48 h
# BT-549 = assay: NCI single dose (10 µM) SRB screen; type: cell-based, human; conditions: breast cancer, 48 h
# Aspergillus flavus = assay: Agar well diffusion method; conditions: relative to clotrimazole
# HCC-2998 = assay: NCI single dose (10 µM) SRB screen; type: cell-based, human; conditions: colon cancer, 48 h
# BTK = BTK (Homo sapiens, UniProt Q06187); set-up: method as in PMID 34146919; conditions: introduction; cited from earlier work
# Chain of BTK (Q06187 whole entry): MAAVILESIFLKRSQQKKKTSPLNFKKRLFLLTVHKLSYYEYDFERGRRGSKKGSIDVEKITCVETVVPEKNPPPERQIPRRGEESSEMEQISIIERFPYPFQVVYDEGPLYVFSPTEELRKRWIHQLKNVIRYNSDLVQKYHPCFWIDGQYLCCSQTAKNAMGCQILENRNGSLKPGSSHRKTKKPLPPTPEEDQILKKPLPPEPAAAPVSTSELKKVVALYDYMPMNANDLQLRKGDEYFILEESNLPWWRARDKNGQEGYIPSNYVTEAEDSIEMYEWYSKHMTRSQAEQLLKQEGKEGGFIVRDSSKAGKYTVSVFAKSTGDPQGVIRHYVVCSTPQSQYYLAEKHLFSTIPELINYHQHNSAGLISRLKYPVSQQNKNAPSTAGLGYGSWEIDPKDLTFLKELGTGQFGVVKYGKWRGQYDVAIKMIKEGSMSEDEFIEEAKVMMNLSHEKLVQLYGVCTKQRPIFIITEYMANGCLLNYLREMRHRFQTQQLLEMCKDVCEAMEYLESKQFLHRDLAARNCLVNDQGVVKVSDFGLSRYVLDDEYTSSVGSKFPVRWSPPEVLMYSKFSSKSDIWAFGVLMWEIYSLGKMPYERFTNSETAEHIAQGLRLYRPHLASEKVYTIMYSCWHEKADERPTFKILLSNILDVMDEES
# HER-2 = HER-2 (Homo sapiens, UniProt P04626); set-up: method as in PMID 34146919; conditions: introduction; cited from earlier work
# Chain of HER-2 (P04626 23-1255): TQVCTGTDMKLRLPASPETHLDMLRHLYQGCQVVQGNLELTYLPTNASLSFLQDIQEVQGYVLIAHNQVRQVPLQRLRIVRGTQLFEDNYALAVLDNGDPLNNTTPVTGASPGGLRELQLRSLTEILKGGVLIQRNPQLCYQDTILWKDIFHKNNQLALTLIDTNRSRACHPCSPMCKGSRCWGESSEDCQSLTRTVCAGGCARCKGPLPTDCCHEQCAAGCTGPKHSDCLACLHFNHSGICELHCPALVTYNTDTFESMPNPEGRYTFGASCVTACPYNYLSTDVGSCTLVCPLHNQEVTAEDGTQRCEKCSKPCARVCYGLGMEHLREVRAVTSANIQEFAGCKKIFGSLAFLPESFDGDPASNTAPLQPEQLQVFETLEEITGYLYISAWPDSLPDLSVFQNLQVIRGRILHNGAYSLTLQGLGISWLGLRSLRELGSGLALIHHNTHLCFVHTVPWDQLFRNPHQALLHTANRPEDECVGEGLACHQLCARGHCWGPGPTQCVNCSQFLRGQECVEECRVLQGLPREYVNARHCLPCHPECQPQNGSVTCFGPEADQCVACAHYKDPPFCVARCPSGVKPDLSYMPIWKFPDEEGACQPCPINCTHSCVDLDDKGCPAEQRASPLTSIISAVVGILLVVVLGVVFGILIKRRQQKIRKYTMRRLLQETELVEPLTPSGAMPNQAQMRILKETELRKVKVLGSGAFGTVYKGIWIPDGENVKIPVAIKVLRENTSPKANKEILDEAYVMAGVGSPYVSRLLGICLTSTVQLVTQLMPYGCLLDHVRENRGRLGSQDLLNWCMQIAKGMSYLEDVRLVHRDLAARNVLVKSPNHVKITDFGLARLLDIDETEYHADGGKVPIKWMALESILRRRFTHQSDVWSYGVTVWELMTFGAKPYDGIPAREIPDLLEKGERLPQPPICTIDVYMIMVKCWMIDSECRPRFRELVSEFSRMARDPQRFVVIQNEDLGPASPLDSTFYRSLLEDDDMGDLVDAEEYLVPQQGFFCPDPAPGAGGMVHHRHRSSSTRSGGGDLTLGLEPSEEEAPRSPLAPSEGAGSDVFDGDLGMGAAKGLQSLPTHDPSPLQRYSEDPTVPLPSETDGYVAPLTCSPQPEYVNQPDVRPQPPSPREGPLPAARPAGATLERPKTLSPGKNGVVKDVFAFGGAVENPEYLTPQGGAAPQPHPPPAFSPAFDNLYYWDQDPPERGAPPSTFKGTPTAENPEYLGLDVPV
# EGFR = EGFR (Homo sapiens, UniProt P00533); set-up: method as in PMID 34146919; conditions: introduction; cited from earlier work
# Chain of EGFR (P00533 25-1210): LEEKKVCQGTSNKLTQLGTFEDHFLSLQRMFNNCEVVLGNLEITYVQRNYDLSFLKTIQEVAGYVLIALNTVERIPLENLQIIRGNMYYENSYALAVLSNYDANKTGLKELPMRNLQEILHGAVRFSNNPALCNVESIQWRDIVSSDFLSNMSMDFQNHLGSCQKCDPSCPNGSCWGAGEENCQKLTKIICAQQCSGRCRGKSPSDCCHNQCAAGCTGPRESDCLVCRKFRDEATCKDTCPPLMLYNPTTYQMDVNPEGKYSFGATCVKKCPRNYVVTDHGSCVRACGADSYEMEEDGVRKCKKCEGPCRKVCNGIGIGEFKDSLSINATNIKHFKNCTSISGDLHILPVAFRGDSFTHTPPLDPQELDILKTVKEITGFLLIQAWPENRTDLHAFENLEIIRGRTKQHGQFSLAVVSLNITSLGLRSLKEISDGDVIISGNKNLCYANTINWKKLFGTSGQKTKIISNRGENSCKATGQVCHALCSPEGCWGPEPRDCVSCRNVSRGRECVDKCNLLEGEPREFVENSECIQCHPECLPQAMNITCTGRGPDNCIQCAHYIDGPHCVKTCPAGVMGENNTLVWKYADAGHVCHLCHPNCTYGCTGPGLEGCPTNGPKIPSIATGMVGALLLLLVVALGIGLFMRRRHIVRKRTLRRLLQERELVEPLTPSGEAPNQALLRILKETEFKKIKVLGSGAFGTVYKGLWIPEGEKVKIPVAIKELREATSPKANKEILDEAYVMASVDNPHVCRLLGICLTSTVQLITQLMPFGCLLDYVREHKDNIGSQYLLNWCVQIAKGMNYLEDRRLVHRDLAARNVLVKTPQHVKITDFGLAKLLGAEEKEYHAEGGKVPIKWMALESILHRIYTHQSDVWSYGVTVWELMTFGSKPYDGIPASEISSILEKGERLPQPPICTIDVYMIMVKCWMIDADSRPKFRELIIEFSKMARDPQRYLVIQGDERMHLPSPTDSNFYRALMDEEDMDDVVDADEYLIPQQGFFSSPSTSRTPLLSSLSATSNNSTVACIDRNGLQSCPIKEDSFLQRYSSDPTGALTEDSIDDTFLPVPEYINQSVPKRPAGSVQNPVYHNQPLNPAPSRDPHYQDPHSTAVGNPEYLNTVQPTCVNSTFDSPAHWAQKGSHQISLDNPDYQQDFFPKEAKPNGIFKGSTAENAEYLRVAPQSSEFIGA
smiles,measurement,setting,value
"CC1=C(C(=O)OC(C)(C)C)C(c2cccc(C#N)c2)C(C(=O)OC(C)(C)C)=C(C)N1 [Compound 1e, Di-tert-butyl 4-(3-cyanophenyl)-2,6-dimethyl-1,4-dihydropyridine-3,5-dicarboxylate]",GI% TK-10,TK-10,– (Only GI% ≥ 10 are shown)
same,GI% KM12,KM12,11%
same,GI% ACHN,ACHN,14%
same,GI% OVCAR-8,OVCAR-8,– (Only GI% ≥ 10 are shown)
same,GI% SK-OV-3,SK-OV-3,– (Only GI% ≥ 10 are shown)
same,"% activity index, C. albicans",Candida albicans,– (Values below 25 are of limited value and not shown as they refer either to inactive or non-diffusing compounds)
same,GI% NCI-H23,NCI-H23,13%
same,GI% PC-3,PC-3,48%
same,GI% MALME-3M,MALME-3M,– (Only GI% ≥ 10 are shown)
same,GI% HCT-15,HCT-15,19%
same,"% activity index, B. subtilis",Bacillus subtilis,– (Values below 25 are of limited value and not shown as they refer either to inactive or non-diffusing compounds)
same,GI% NCI-H226,NCI-H226,22%
same,GI% SR,SR,42%
same,GI% OVCAR-4,OVCAR-4,– (Only GI% ≥ 10 are shown)
same,GI% HOP-62,HOP-62,– (Only GI% ≥ 10 are shown)
same,GI% NCI-H460,NCI-H460,– (Only GI% ≥ 10 are shown)
same,GI% SNB-19,SNB-19,– (Only GI% ≥ 10 are shown)
same,GI% MDA-MB-468,MDA-MB-468,27%
same,GI% HOP-92,HOP-92,30%
same,GI% UO-31,UO-31,25%
same,GI% HT29,HT29,13%
same,GI% T-47D,T-47D,53%
same,GI% MCF7,MCF7,34%
same,GI% A549/ATCC,A549/ATCC,20%
same,Mean GI%,NCI 60 cancer cell lines,14%
same,GI% NCI-H522,NCI-H522,17%
same,GI% SNB-75,SNB-75,38%
same,GI% MOLT-4,MOLT-4,39%
same,GI% K-562,K-562,34%
same,GI% SN12C,SN12C,– (Only GI% ≥ 10 are shown)
same,GI% RXF 393,RXF 393,33%
same,GI% M14,M14,– (Only GI% ≥ 10 are shown)
same,GI% SW-620,SW-620,– (Only GI% ≥ 10 are shown)
same,GI% SK-MEL-28,SK-MEL-28,– (Only GI% ≥ 10 are shown)
same,GI% MDA-MB-231,MDA-MB-231,14%
same,GI% UACC-62,UACC-62,26%
same,GI% 786-0,786-0,18%
same,GI% UACC-257,UACC-257,16%
same,GI% HCT-116,HCT-116,35%
same,GI% SK-MEL-2,SK-MEL-2,– (Only GI% ≥ 10 are shown)
same,GI% RPMI-8226,RPMI-8226,39%
same,GI% SF-539,SF-539,10%
same,GI% LOX IMVI,LOX IMVI,10%
same,GI% EKVX,EKVX,20%
same,GI% SF-268,SF-268,11%
same,GI% OVCAR-5,OVCAR-5,– (Only GI% ≥ 10 are shown)
same,GI% DU-145,DU-145,– (Only GI% ≥ 10 are shown)
same,GI% U251,U251,– (Only GI% ≥ 10 are shown)
same,"% activity index, E. coli",Escherichia coli,– (Values below 25 are of limited value and not shown as they refer either to inactive or non-diffusing compounds)
same,GI% NCI-H322M,NCI-H322M,– (Only GI% ≥ 10 are shown)
same,GI% CAKI-1,CAKI-1,32%
same,GI% HS578T,HS578T,– (Only GI% ≥ 10 are shown)
same,GI% HL-60(TB),HL-60(TB),41%
same,GI% CCRF-CEM,CCRF-CEM,16%
same,GI% OVCAR-3,OVCAR-3,– (Only GI% ≥ 10 are shown)
same,"% activity index, S. aureus",Staphylococcus aureus,– (Values below 25 are of limited value and not shown as they refer either to inactive or non-diffusing compounds)
same,GI% NCI/ADR-RES,NCI/ADR-RES,– (Only GI% ≥ 10 are shown)
same,GI% MDA-MB-435,MDA-MB-435,– (Only GI% ≥ 10 are shown)
same,GI% A498,A498,– (Only GI% ≥ 10 are shown)
same,"% activity index, P. aeruginosa",Pseudomonas aeruginosa,– (Values below 25 are of limited value and not shown as they refer either to inactive or non-diffusing compounds)
same,GI% IGROV1,IGROV1,– (Only GI% ≥ 10 are shown)
same,GI% SF-295,SF-295,27%
same,GI% COLO 205,COLO 205,– (Only GI% ≥ 10 are shown)
same,GI% SK-MEL-5,SK-MEL-5,14%
same,melting point,,166 to 168 °C
same,GI% BT-549,BT-549,– (Only GI% ≥ 10 are shown)
same,"% activity index, A. flavus",Aspergillus flavus,– (Values below 25 are of limited value and not shown as they refer either to inactive or non-diffusing compounds)
same,GI% HCC-2998,HCC-2998,– (Only GI% ≥ 10 are shown)
CCOC(=O)C1=C(C)NC(C)=C(C(=O)OCC)C1c1ccc2c(c1)Cc1ccccc1-2 [Compound II],IC50,BTK,68.8 nM
same,IC50,HER-2,84.5 nM
same,IC50,EGFR,71.8 nM
